Reference: patent US20250352529A1, “COMBINED USE OF M1 MUSCARINIC RECEPTOR AGONISTS AND M3 MUSCARINIC RECEPTOR ANTAGONISTS TO TREAT CANCER” (The United States Government As Represented By The …, priority 2024, published 2025)
Like-named read-outs stand apart in the source and are kept apart here.

Key:
H508 human CRC cells = test: WST-1 cell proliferation assay, H508 cells; assay type: cell-based; details: for change in cell proliferation: trospium 5-50 μM; for effect of antagonist preincubation on xanomeline dose-response curve (proliferation): trospium 50 μM, darifenacin 30 and 60 μM; for IC50: Homo sapiens, read-out: half-maximal inhibitory concentration (IC50), cell proliferation
Method: (§1) FIG. 6A) Treating H508 cells for 5 days with carbachol (carb), a non-selective muscarinic receptor agonist stimulates cell proliferation measured using the WST-1 Cell Proliferation Assay (Roche). Cont, control; Carb, carbachol. Solid black circles represent values for individual replicates. […] Cells were incubated with or without agents for 5 days. N=4. FIG. 6D). Maximal proliferation responses observed with increasing concentrations of McN-A-343 in H508 (square), HT-29 (triangle), and HCT116 (circle) human CRC cells. Cells were incubated with agents for 5 days. Dose-response curves created by nonlinear regression (GraphPad Prism).
(§2) Human colon cancer cell lines (H508, HCT116) were grown in complete culture medium in a 37° C. incubator with 5% CO2 and sub-cultured weekly. H508 or HCT116 cells were seeded in 96-well plates, allowed to adhere for 24 h and changed to serum-free culture medium. Cells were treated for 5 days with Xanomeline, a selective M1R agonist, and were pre-incubated for 30 min with Darifenacin, a selective M3R antagonist or Trospium, a non-selective MR antagonist. Cell proliferation and cytotoxicity were measured using the WST-1 and LDH colorimetric assays, respectively. Absorbance was measured at 440 nm and 490/680 nm, respectively, using a computer-interfaced plate reader.

HCT116 human CRC cells = test: WST-1 cell proliferation assay, HCT116 cells; assay type: cell-based
Method: as §1, §2

HT-29 human CRC cells = test: WST-1 cell proliferation assay, HT-29 cells; assay type: cell-based; details: HT-29 cells (CHRM1:3-low), 5 days; read-out: half-maximal effective concentration (EC50) for inhibition of CRC cell proliferation
Method: as §1

H508 CRC cells = test: LDH release cytotoxicity assay; assay type: cell-based, human; details: increasing doses of xanomeline +/− 30 or 60 μM darifenacin
Method: FIG. 7A-B show combining a selective M3R inhibitor (darifenacin) with an M1R-selective activator potentiates inhibition of cell proliferation without cell injury. […] Triton X-100 was the positive control for LDH release. Symbols represent means+/−SEM of 3-9 replicates.
To exclude cell toxicity with these drug concentration, cellular release of lactate dehydrogenase (LDH) was measured.
as §2

[1] = H508 cells, 5 days, agent alone
[2] = NCI-H508, 120 h, H508 cells, agent alone, 5 days

**Q.** What does the source list for `C[N+](C)(C)CC#CCOC(=O)Nc1cccc(Cl)c1.[Cl-]` [McN-A-343]?
**A.** EC50 (H508 human CRC cells; H508 cells (CHRM1:3-low), 5 days, read-out: half-maximal effective concentration (EC50) for inhibition of CRC cell proliferation): 137 µM; change in cell proliferation (H508 human CRC cells; [1]): robustly and dose-dependently attenuated cell proliferation; EC50 (HCT116 human CRC cells; HCT116 cells (CHRM1:3-high), 5 days, read-out: half-maximal effective concentration (EC50) for inhibition of CRC cell proliferation): 7.89 µM; EC50 (HT-29 human CRC cells): 548 µM

**Q.** Which “change in cell proliferation” value (H508 human CRC cells; [1]) does the source give for `C[N+](C)(C)CCOC(N)=O` [carbachol, Carbachol] here?
**A.** Its value is “two-fold increase in cell proliferation”.

**Q.** `NC(=O)C(c1ccccc1)(c1ccccc1)[C@@H]1CCN(CCc2ccc3c(c2)CCO3)C1` [darifenacin, Darifenacin] was tested. Which “effect of antagonist preincubation on xanomeline dose-response curve (proliferation)” value (H508 human CRC cells; H508 cells) did it give?
**A.** Its value is “shifted the xanomeline dose-response curve progressively leftward”.

**Q.** What about the IC50 (H508 human CRC cells; [2]) of the same compound?
**A.** Its IC50 is 84 µM.

**Q.** Which “change in cell proliferation” value (H508 human CRC cells; [1]) does the source give for `O=C(O[C@H]1C[C@H]2CC[C@@H](C1)[N+]21CCCC1)C(O)(c1ccccc1)c1ccccc1` [trospium, Trospium] here?
**A.** Its value is “did not alter cell proliferation”.

**Q.** What about the “effect of antagonist preincubation on xanomeline dose-response curve (proliferation)” value (H508 human CRC cells; H508 cells) of the same compound?
**A.** The value was “did not shift”.

**Q.** Which “change in cell proliferation” value (H508 human CRC cells; [1]) does the source give for `CCCCCCOc1nsnc1C1=CCCN(C)C1` [xanomeline, Xanomeline] here?
**A.** The value was “robustly and dose-dependently attenuated cell proliferation”.

**Q.** And the IC50 (H508 human CRC cells; [2])?
**A.** Its IC50 is 32.8 µM.

**Q.** And the IC50 (H508 human CRC cells; NCI-H508, H508 cells, xanomeline plus 30 μM darifenacin)?
**A.** The IC50 was 21.6 µM.

**Q.** And the IC50 (H508 human CRC cells; NCI-H508, H508 cells, xanomeline plus 60 μM darifenacin)?
**A.** The IC50 was 18.7 µM.

**Q.** And the “inhibition of cell proliferation compared to H508 cells” value (HCT116 human CRC cells; HCT116 cells, increasing xanomeline concentrations)?
**A.** Its value is “attenuated at lower xanomeline concentrations”.

**Q.** What about the “cell LDH leakage” value (H508 CRC cells) of the same compound?
**A.** Its value is “No cell LDH leakage was detected”.
